The values below come from patent US8633206B2, “Pyrrolo[2,3-D]pyrimidine compounds” (Pfizer Inc., priority 2009, dated 2014).

As a reminder, the IC50 is the midpoint of a concentration-inhibition curve.

Common to all, as to format: biochemical
Assay [1] addresses JAK3 (Homo sapiens (Human), UniProt P52333). Kind of assay: JAK enzymatic assay (peptide mobility shift), JAK3. Particulars: recombinant JAK3 1 nM, JAKtide peptide, 90 minutes.
The target of assay [2] is JAK2 (Homo sapiens (Human), UniProt O60674). The assay can be described thus: JAK enzymatic assay (peptide mobility shift), JAK2. Particulars: recombinant JAK2 2 nM, JAKtide peptide, 150 minutes.
Assay [3] has as its target JAK1 (Homo sapiens (Human), UniProt P23458). The assay can be described thus: JAK enzymatic assay (peptide mobility shift), JAK1. As to conditions: recombinant JAK1 20 nM, IRS-1 peptide, 240 minutes.

JAK2, sequence (O60674 808-1132): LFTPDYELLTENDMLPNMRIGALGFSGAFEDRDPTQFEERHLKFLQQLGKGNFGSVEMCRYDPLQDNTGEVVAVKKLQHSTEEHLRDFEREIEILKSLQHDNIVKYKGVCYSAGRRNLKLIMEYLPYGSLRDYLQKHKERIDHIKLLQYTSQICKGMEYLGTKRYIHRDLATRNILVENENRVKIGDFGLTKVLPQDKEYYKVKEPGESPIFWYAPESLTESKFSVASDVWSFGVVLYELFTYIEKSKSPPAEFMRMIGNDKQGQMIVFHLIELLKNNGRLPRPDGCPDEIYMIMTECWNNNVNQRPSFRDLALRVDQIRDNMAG
JAK1, sequence (P23458 whole entry): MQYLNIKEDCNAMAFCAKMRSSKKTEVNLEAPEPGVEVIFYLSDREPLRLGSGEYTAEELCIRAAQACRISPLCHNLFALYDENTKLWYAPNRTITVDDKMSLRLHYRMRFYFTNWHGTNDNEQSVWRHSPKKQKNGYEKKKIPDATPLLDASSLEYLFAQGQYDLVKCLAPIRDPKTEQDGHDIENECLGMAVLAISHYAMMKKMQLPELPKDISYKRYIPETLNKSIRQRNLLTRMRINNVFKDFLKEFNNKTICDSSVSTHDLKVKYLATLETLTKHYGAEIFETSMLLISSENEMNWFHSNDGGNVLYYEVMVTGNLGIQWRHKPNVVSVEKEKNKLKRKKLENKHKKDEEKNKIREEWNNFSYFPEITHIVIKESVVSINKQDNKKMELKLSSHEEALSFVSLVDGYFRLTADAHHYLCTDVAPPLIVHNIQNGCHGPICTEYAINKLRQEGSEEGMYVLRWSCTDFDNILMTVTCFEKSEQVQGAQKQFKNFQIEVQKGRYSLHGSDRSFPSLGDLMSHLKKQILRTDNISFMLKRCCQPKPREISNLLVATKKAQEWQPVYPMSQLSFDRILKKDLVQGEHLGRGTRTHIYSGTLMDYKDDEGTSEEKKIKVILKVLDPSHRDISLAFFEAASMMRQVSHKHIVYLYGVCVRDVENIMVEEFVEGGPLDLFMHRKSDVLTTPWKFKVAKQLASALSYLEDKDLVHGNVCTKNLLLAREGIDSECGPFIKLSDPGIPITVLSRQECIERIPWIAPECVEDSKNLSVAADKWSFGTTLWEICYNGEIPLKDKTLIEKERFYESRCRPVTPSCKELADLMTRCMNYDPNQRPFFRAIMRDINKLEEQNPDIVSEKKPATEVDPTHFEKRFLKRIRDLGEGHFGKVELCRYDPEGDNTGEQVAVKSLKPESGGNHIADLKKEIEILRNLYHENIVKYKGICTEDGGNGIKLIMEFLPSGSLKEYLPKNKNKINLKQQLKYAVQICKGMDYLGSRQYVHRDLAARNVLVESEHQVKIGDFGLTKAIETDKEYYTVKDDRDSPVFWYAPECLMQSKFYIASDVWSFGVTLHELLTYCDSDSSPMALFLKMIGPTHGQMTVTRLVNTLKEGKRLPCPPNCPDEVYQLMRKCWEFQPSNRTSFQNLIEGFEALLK
JAK3, sequence (P52333 781-1124): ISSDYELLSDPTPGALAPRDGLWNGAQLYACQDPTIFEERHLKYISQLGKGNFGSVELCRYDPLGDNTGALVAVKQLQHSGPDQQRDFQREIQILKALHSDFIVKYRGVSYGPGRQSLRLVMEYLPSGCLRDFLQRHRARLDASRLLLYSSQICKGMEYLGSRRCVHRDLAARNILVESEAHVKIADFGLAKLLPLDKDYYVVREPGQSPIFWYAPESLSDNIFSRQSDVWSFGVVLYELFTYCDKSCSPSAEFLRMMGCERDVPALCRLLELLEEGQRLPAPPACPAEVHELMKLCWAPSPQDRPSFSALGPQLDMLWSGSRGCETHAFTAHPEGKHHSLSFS

As to `CN(c1ncnc2[nH]ccc12)[C@H]1CC[C@H](CS(=O)(=O)N2CCC[C@@H](OP(=O)(O)O)C2)CC1` [Example 141, (3R)-1-[({trans-4-[methyl(7H-pyrrolo[2,3-d]pyrimidin-4-yl)amino]cyclohexyl}methyl)sulfonyl]piperidin-3-yl dihydrogen phosphate], the half-maximal inhibitory concentration (IC50) in assay [1] came out at 0.768 nM; in assay [2] it was 0.106 nM; in assay [3] it was 0.0263 nM.
